Experimental data published in patent US20240043514A1, “NOVEL METHOD FOR PRODUCING ANTIBODIES” (TSINGHUA UNIVERSITY, priority 2017, published 2024).

How the values were obtained:
[1] = tested on: PBMCs; experiment: In vitro immunization (IVI) of PBMCs, antigen-specific IgG/IgM production by ELISA; assay type: cell-based, human; settings: 500 nM synthesized TLR7/8 agonist
Method: PBMCs were washed and diluted with PIV culture medium. Cell density was adjusted to 1*10^^7 cells/ml, treateder with 0.25 mM LLME for about 20 min. Discarded supernatant, and re-suspended cell with PIV culture medium. Adjusted cell density to 9*10^^5 cells/ml. […] Cultured the tissue for 7 days at 37° C., 5% CO2. Changed half of the medium and added factor cocktail on day 7. Cultured the cells for 7-21 days at 37° C., 5% CO2. Collected the supernatant on day 7, day 14, or day 21 for analysis of antibody production by ELISA, whereas the pellets are used for testing gene expression by PCR or RT-PCR. The collected cells were also tested in ELISpot assay for FACS analysis.
Exemplary IVI steps with addition of stimulate factors: • 1. Prepared PBMCs and treat them with LLME. • 2. […] Collected the cells and plate them into 96-well plate at a density of 6*10^4/well. • 4. […] The IgG and IgM level was examined with ELISA assay.
After day7 or day14 with addition of cytokines or antibody-enhancing composition and antigens, supernatants were harvested and added to antigen OVA-coated plates. After 2 hr incubation, a HRP-conjugated anti-human IgG or anti-human IgM was added, the amount of antigen-specific antibody was measured using TMB as substrate. The data represents the mean of 2 replicates; error bars represent SD. One representative data of 3 separate experiments is shown.
Plates were coated with antigen at 5 μg/ml overnight at 4° C. and washed them in PBST (containing 0.5% Tween-20). The plates were blocked with 5% BSA before addition of cell culture supernatants and horseradish peroxidase (HRP)-conjugated detection antibodies (dilutions: 1 in 2,500 for HRP-conjugated IgG-specific antibody (Jackson) and HRP-conjugated IgM-specific antibody. TMB substrates solution was used for measurement. […]
To further test effects of other cytokine or molecules on antibody production, a synthesized TLR7/8 agonist (50 nM and 500 nM) was added to the IVI system in the presence of antigen OVA (2 μg/ml).
An exemplary cytokine, IL1β, was tested. PBMCs were incubated in vitro with OVA, basic, and either some of the known stimulating factors ICOS, CD40L, TLR7/8 agonists or IL1β (in different doses) (1.5*10^^5 cell/well, 96 well plate). After 7 or 14 days, supernatants were harvested, and IgG/IgM antibody production was measured by ELISA assay.

[2] = target: T1, TLR9 (Homo sapiens, UniProt Q9NR96); experiment: Inhibition of CpG2006 (TLR9 agonist) by E6446; assay type: cell-based; settings: data not shown
T1 sequence (Q9NR96 26-1032): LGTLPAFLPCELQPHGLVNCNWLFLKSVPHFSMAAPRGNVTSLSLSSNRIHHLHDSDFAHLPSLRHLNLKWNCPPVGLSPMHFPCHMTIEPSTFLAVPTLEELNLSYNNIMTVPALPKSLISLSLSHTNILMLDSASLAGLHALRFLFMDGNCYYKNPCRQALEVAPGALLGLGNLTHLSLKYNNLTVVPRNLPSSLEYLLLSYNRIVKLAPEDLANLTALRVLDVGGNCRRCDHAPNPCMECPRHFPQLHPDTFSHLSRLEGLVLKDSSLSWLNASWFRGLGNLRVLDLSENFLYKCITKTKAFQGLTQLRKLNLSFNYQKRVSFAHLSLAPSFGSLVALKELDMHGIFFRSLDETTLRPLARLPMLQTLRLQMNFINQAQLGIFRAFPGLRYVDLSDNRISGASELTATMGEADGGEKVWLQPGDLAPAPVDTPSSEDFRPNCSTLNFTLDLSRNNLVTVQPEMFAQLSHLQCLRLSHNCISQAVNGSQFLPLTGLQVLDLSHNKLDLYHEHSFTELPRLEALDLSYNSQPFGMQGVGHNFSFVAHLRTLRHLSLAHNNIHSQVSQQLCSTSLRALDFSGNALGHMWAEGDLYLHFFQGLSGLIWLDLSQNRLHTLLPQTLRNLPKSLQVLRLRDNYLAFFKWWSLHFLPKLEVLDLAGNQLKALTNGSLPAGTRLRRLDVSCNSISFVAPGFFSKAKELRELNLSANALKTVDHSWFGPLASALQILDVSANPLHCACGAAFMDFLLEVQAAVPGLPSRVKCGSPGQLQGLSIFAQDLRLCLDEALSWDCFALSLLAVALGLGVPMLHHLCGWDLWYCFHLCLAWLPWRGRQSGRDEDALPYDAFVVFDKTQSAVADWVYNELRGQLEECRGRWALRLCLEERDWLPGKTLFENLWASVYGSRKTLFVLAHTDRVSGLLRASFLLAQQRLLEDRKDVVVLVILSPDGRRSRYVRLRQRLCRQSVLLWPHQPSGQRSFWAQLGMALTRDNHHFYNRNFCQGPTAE
Method: (§1) E6446 dihydrochloride (E6446-HCL), a synthetic nucleic acid-sensing TLRs antagonist. It's IC50 for CpG2006 (TLR9 agonist) was in the range of 0.01-0.03 uM (data not shown). But it required 2-8 uM (a 100-fold higher concentration) to inhibit the effect of R848 (TLR7/8 agonist) (data not shown).

[3] = tested on: TLR7/8; experiment: Inhibition of the effect of R848 (TLR7/8 agonist) by E6446; assay type: cell-based
Method: as §1

[4] = tested on: Follicular dendritic cells (FDCs); experiment: Flow cytometry of follicular dendritic cells (CD3-CD19-CD21+/CD35+) in PBMCs; assay type: cell-based, human; settings: high concentration of E6446 (10 uM), with TLR7/8 agonist
Method: FIGS. 12A-12G show the interactive effects between synthesized TLR7/8 agonist and TLR9 antagonist in stimulating anti-OVA antibody production in PBMCs. At low concentrations (0.02-0.2 uM), the E6446 enhanced the effect of synthesized TLR7/8, whereas at a high concentration (10 uM), E6446 inhibited this effect. Enzyme-linked immunosorbent assay (ELISA) analysis of OVA-specific antibodies of IgG (FIGS. 12A and 12D) and IgM (FIGS. 12B and 12E) responses were performed 7 days or 14 days after stimulant incubation. Cell proliferation (FIGS. 12C and 12F) was assayed by CellTiter-glo kit. Cells were harvested and tested by Flow cytometry (G). Follicular dendritic cells (FDCs) cells were gated as CD3^−CD19^−CD21^+/CD35^+ cells. Note. CD35 and CD21 are dendritic cell (DC) markers which may represent two subpopulations of DCs. The CD21-sub-type is inhibited by high concentration of E6446. […] The data represented the mean of 3 replicates; error bars represented SD. […]

IC50 [2]: 10 to 30 nM
concentration to inhibit R848 relative to IC50 for CpG2006 ([3]; TLR7/8 versus TLR9): 100 fold
SMILES: Cl.Cl.c1cc(-c2nc3ccc(OCCCN4CCCC4)cc3o2)ccc1OCCCN1CCCC1 [E6446 dihydrochloride]
effect of low concentration E6446 on IgG production with TLR7/8 agonist ([1]; E6446 0.02 uM and 0.2 uM, 14-day cultures, OVA+IL2+IL21): promotes the effects of TLR7/8 agonist on antibody IgG production
effect of high concentration E6446 on IgG and IgM production with TLR7/8 agonist ([1]; E6446 10 uM, 7-day and 14-day cultures): reverses the effects of TLR7/8 agonist
concentration required to inhibit the effect of R848 (TLR7/8 agonist) ([3]; data not shown): 2 to 8 µM
CD21-sub-type of dendritic cells [4]: inhibited
